Results as given in patent EP4168403B1 (priority 2020, dated 2021).

What was measured:
mice = assay: Object Recognition task (ORT), scopolamine-induced memory impairment; type: in vivo; conditions: 1 mg/kg intraperitoneally with scopolamine 0.5 mg/kg
Protocol: For behavioural studies, 50 swiss female 10-week-old weighing 25-30 g were used. Memory impairment was induced by the potent antimuscarinic drug scopolamine hydrobromide (0.5 mg/kg, Sigma) dissolved in saline buffer. To explore the potential of BIGI-3h as a cognitive enhancer, the compound was administered at a dose of 1 mg/kg and 10 mg/kg. For comparison, the antiamnesic effect of donepezil was tested (Tocris Bioscience, R&D Systems Inc.) at a dose of 1 mg/kg. Both products, 3h and donepezil, were dissolved in saline buffer containing 3.6% dimethyl sulfoxide. All drug solutions were independently prepared immediately before their use and were administered intraperitoneally in 10 mL/kg of vehicle volume. Different batches of mice were used for each experiment. The animals were distributed into 5 experimental groups (I-V): control groups (I) mice administered 3.6% DMSO in saline buffer, labelled as "control vehicle"; experimental groups (II-V) consisted of (II) mice administered scopolamine dissolved in 3.6% DMSO in saline buffer, labelled as "scop/DMSO," (III) mice co-administered scopolamine plus Donepezil, labelled as "Scopo/donep," (IV) and (V) mice co-administrated scopolamine plus BIGI-3h at 1mg/Kg and 10mg/Kg labelled respectively "Scopo/3h 1" "Scopo/3h 10".
Spontaneous object recognition was tested as described previously, 28 with slight modifications. All behavioural experiments took place during the light phase of the 12-h light/ dark cycle between 10 am and 3 pm to minimize the influence of circadian rhythm, and they were conducted with the investigators blind to treatments. […] The total time spent in active exploration of each object during T1 and T2 was determined with a computerized tracking system and image analyzer (Ethovision XT, Noldus Information Technology) that tracked the nose, centre and tail points of each mouse^45. As a criterion of active object exploration, it was measured the time spent by the animal directing its nose to the object at a distance of less than 2 cm and/or touching it with the vibrissae or nose. […]

Tau(306-336) peptide = Tau(306-336) peptide (Homo sapiens, UniProt P10636); conditions: Tau(306-336) 50 µM, inhibitor 50 µM (1:1 ratio); mean ± SEM
Sequence of Tau(306-336) peptide (P10636 623-653 limits assumed): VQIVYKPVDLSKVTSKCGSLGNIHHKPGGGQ
Protocol: Subsequently, the sample was aliquoted dried and stored at -20 °C.
Fluorescence data were recorded every 10 min overnight with 1 min shaking at 800 rpm prior to each reading. Each inhibitor was assayed in triplicates in at least two independent experiments. […] Inhibition % are expressed as the mean ± SEM. […] Values were averaged and the presented values are expressed as the mean ± SEM.
Fluorescence data were recorded every 10 min overnight with 1 min shaking at 800 rpm prior to each reading.

| Structure (SMILES) | recognition index / discrimination index (Figure 5) (mice) | Inhibition of T (306-336) peptide self - aggregation (%) (Tau(306-336) peptide) |
| --- | --- | --- |
| COc1cc2c(cc1OC)C(=O)C(CC1CCN(Cc3ccccc3)CC1)C2 (centres unmarked) [donepezil, reference compound] | reversed the short-term memory impairment induced by scopolamine | – |
| Nc1c2c(nc3ccccc13)CCCC2 [tacrine, reference compound] | – | not able to significantly interfere |
